Assay results taken from article PMC4226674, “A phase I trial of the HIV protease inhibitor nelfinavir in adults with solid tumors” (Oncotarget, 2014).
Like-named read-outs stand apart in the source and are kept apart here.

Columns and labels:
CYP3A4 = target: T1, CYP3A4 (Homo sapiens, UniProt P08684); assay: CYP3A4 phenotyping with oral midazolam before and at nelfinavir steady state; format: in vivo
T1 construct: To determine CYP3A4 phenotype, a single 3 mg oral dose of midazolam hydrochloride, a CYP3A4 substrate, was administered; from tissue; host or cells: in vivo, the patients' own (hepatic/intestinal) enzyme
T1 sequence (P08684 whole entry): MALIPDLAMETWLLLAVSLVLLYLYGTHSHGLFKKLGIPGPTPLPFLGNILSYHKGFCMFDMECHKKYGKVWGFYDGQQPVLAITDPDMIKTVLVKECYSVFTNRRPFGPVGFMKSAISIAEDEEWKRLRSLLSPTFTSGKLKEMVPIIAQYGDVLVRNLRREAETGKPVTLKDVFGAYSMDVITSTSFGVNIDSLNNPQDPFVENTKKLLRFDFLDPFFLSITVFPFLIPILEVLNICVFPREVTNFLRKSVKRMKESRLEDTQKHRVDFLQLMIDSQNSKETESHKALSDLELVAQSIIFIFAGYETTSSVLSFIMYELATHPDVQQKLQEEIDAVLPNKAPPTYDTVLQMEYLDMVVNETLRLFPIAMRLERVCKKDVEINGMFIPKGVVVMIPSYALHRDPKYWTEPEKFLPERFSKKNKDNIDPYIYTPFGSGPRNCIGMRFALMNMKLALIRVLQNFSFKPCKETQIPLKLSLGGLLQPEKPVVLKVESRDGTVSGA
Method: To determine CYP3A4 phenotype, a single 3 mg oral dose of midazolam hydrochloride, a CYP3A4 substrate, was administered at day -2 (2 days prior to commencing nelfinavir) and again at steady state (cycle 1 day 20). Serial venous blood samples were collected at 15, 30, 60, 120, 180, 240, and 300 minutes following administration of midazolam. […] Plasma concentrations of midazolam and nelfinavir were determined with a validated assay employing high performance liquid chromatography (HPLC) with mass spectrometric detection. Noncompartmental pharmacokinetic analyses were performed with WinNonlin 5.2 (Pharsight). Individual concentration-time profiles were constructed for each patient, course and drug resulting in four profiles per patient (two each for midazolam and nelfinavir). The maximum plasma concentration (Cmax) and the time of maximum plasma concentration (Tmax) were the observed values. Drug exposure was estimated using the area under the concentration-time curve (AUC). The area under the concentration-time curve (AUC) from time zero to the time of the final quantifiable sample (AUClast) was calculated using the linear trapezoidal method. The area under the concentration-time curve from time zero to infinity (AUCinf) was calculated by extrapolation, using the terminal rate constant from the last measurable concentration.

[1] = Method: This single institution, open-label, Phase Ia dose escalation study was performed to establish the MTD and DLT of nelfinavir in subjects with advanced refractory solid tumors. The study used a modified Fibonacci scheme, in which cohorts of three to six subjects were entered at each dose level until two patients developed DLT. If two or more subjects encountered DLT, then the MTD was exceeded. The MTD was defined as the dose level at which less than 2 of 6 subjects experienced DLT. Each cycle lasted 21 days. Up to 6 additional patients were allowed to be enrolled at the MTD in order to better establish potential rates of toxicity.
Physical examinations, toxicity assessments and laboratory analyses were conducted weekly during cycle 1 and then every three weeks beginning cycle 2.
The starting dose of nelfinavir was the FDA-approved dose in HIV patients of 1250 mg twice daily, which comprised dose level (DL) 1. Dose escalation proceeded in 625 mg, twice-daily increments (DL2: 1875 mg, DL3: 2500 mg, DL4: 3125 mg, DL5: 3750 mg, DL6: 4375 mg).
Toxicity was graded according to the National Cancer Institute Common Toxicity Criteria, version 3.0.

[2] = Nelfinavir plasma pharmacokinetics (HPLC-MS, noncompartmental); format: in vivo, human
Method: To determine CYP3A4 phenotype, a single 3 mg oral dose of midazolam hydrochloride, a CYP3A4 substrate, was administered at day -2 (2 days prior to commencing nelfinavir) and again at steady state (cycle 1 day 20). Serial venous blood samples were collected at 15, 30, 60, 120, 180, 240, and 300 minutes following administration of midazolam. Nelfinavir pharmacokinetics (PK) were obtained after single dose administration, cycle 1 day 1, and again at steady state, cycle 2 day 1. Serial venous blood samples were collected pre-dose and at 1, 2, 3, 4, 5, 6 and 12 hours after administration. Plasma concentrations of midazolam and nelfinavir were determined with a validated assay employing high performance liquid chromatography (HPLC) with mass spectrometric detection. Noncompartmental pharmacokinetic analyses were performed with WinNonlin 5.2 (Pharsight). Individual concentration-time profiles were constructed for each patient, course and drug resulting in four profiles per patient (two each for midazolam and nelfinavir). The maximum plasma concentration (Cmax) and the time of maximum plasma concentration (Tmax) were the observed values. Drug exposure was estimated using the area under the concentration-time curve (AUC). The area under the concentration-time curve (AUC) from time zero to the time of the final quantifiable sample (AUClast) was calculated using the linear trapezoidal method. The area under the concentration-time curve from time zero to infinity (AUCinf) was calculated by extrapolation, using the terminal rate constant from the last measurable concentration.

P-EIF2 alpha S51 = assay: ER stress marker P-EIF2 alpha in PBMCs by immunoblotting; format: in vivo, human; conditions: DL4 (3125 mg bid), after 7 or 42 days; printed as 'the same percentage'
Method: Peripheral blood mononuclear cells (PBMCs) were collected at baseline, and then twice after starting nelfinavir: cycle 1 day 7 and cycle 1 day 42. Levels of P-AKT S473, P-EIF2 alpha S51, ATF3 and CHOP in PBMCs before and after nelfinavir were analyzed by immunoblotting. Blood was collected in Vacutainer CPT collection tubes with sodium heparin (BD Biosciences cat# 362753) and mononuclear cells were isolated as per the manufacturer's instructions. PBMCs were washed with PBS and lysed in 2X LSB buffer [33], aliquotted and stored at -80°C. For analysis, equal amounts of protein per sample were run on 10-12% SDS-PAGE gels, then transferred onto nitrocellulose membranes. Membranes were blocked in 5% milk in TBS + 0.1% tween (TBST) and incubated with primary antibody diluted in 5% BSA in TBST at 4 degrees overnight. The next day membranes were washed, incubated with HRP-linked secondary antibody and developed using ECL chemiluminescent reagent (GE Healthcare) and X-ray film as per the manufacturers instructions. The amount of P-AKT S473, P-EIF2 alpha S51, ATF3 or CHOP in the PBMCs at C1D7 and C1D42 were compared against a baseline sample for each patient, (prior to receiving nelfinavir). Antibodies against P-AKT S473 #4060, P-EIF2 alpha S51 #3398 and β-Actin #4970 were from Cell Signaling Technology (Danvers, MA). […]

P-AKT S473 = assay: Akt activation in PBMCs by immunoblotting; format: in vivo, human
Method: Blood was collected in Vacutainer CPT collection tubes with sodium heparin (BD Biosciences cat# 362753) and mononuclear cells were isolated as per the manufacturer's instructions. PBMCs were washed with PBS and lysed in 2X LSB buffer, aliquotted and stored at -80°C. For analysis, equal amounts of protein per sample were run on 10-12% SDS-PAGE gels, then transferred onto nitrocellulose membranes. Membranes were blocked in 5% milk in TBS + 0.1% tween (TBST) and incubated with primary antibody diluted in 5% BSA in TBST at 4 degrees overnight. The next day membranes were washed, incubated with HRP-linked secondary antibody and developed using ECL chemiluminescent reagent (GE Healthcare) and X-ray film as per the manufacturers instructions. […] Antibodies to CHOP sc-7351 and ATF3 sc-188 were from Santa Cruz Biotechnology (Santa Cruz, CA).

[3] = Cycle 2 Day 1 steady state, 3125 mg bid, mean, n=6

In the case of Cc1c(O)cccc1C(=O)N[C@@H](CSc1ccccc1)[C@H](O)CN1C[C@H]2CCCC[C@H]2C[C@H]1C(=O)NC(C)(C)C [nelfinavir, Nelfinavir], the “change in midazolam clearance” value (CYP3A4; day 20 (nelfinavir steady state) vs pre-nelfinavir (D-2), 3 mg oral midazolam, 19 subjects, p<0.001) is reported as “significant decrease”, the “change in midazolam exposure and half-life” value (CYP3A4; day 20 vs pre-nelfinavir, p<0.05 for each, data not shown) is reported as “significant increase” and the “MTD relative to FDA-approved dose for HIV (fold/times)” value ([1]; 3125 mg bid vs doses typically used in HIV patients) is reported as 2.5. The “onset of nelfinavir-induced neutropenia” value ([1]; human, in vivo) was at most 3 days, the “recovery of neutropenia after discontinuation of drug” value ([1]; human, in vivo) was at most 3 days and the “ALT increase, treatment-related AE in cycle 1” value ([1]; human, in vivo, 21 days) was 5 (20.8) N (%). For the same compound, the “Abdominal pain, treatment-related AE in cycle 1” value ([1]; human, in vivo, 21 days) was 1 (4.2) N (%), the “Anemia, treatment-related AE in cycle 1” value ([1]; human, in vivo, 21 days) was 10 (41.7) N (%) and the “Anorexia, treatment-related AE in cycle 1” value ([1]; human, in vivo, 21 days) was 1 (4.2) N (%). For the same compound, the “Belching, treatment-related AE in cycle 1” value ([1]; human, in vivo, 21 days) was 1 (4.2) N (%), the “Bloating/, treatment-related AE in cycle 1” value ([1]; human, in vivo, 21 days) was 3 (12.5) N (%) and the “Cholesterol increase, treatment-related AE in cycle 1” value ([1]; human, in vivo, 21 days) was 3 (12.5) N (%). The “Dehydration, treatment-related AE in cycle 1” value ([1]; human, in vivo, 21 days) was 2 (8.3) N (%), the “Depression, treatment-related AE in cycle 1” value ([1]; human, in vivo, 21 days) was 1 (4.2) N (%) and the “Diarrhea, treatment-related AE in cycle 1” value ([1]; human, in vivo, 21 days) was 12 (50.0) N (%). For the same compound, the “Fatigue, treatment-related AE in cycle 1” value ([1]; human, in vivo, 21 days) was 5 (20.8) N (%), the “Flatulence, treatment-related AE in cycle 1” value ([1]; human, in vivo, 21 days) was 1 (4.2) N (%) and the “Heartburn, treatment-related AE in cycle 1” value ([1]; human, in vivo, 21 days) was 1 (4.2) N (%). The “Hyperglycemia, treatment-related AE in cycle 1” value ([1]; human, in vivo, 21 days) was 4 (16.7) N (%), the “Hyperkalemia, treatment-related AE in cycle 1” value ([1]; human, in vivo, 21 days) was 3 (12.5) N (%) and the “Hypoalbuminemia, treatment-related AE in cycle 1” value ([1]; human, in vivo, 21 days) was 5 (20.8) N (%). The “Hypokalemia, treatment-related AE in cycle 1” value ([1]; human, in vivo, 21 days) was 1 (4.2) N (%), the “Hyponatremia, treatment-related AE in cycle 1” value ([1]; human, in vivo, 21 days) was 2 (8.3) N (%) and the “Hypophosphatemia, treatment-related AE in cycle 1” value ([1]; human, in vivo, 21 days) was 1 (4.2) N (%). For the same compound, the “Hypothyroid, treatment-related AE in cycle 1” value ([1]; human, in vivo, 21 days) was 1 (4.2) N (%), the “Insomnia, treatment-related AE in cycle 1” value ([1]; human, in vivo, 21 days) was 1 (4.2) N (%) and the “Leukopenia, treatment-related AE in cycle 1” value ([1]; human, in vivo, 21 days) was 4 (16.7) N (%). For the same compound, the “Lymphopenia, treatment-related AE in cycle 1” value ([1]; human, in vivo, 21 days) was 10 (41.7) N (%), the “Nausea, treatment-related AE in cycle 1” value ([1]; human, in vivo, 21 days) was 2 (8.3) N (%) and the “Neutropenia, treatment-related AE in cycle 1” value ([1]; human, in vivo, 21 days) was 5 (20.8) N (%). The “Palpitations, treatment-related AE in cycle 1” value ([1]; human, in vivo, 21 days) was 1 (4.2) N (%), the “Thrombocytopenia, treatment-related AE in cycle 1” value ([1]; human, in vivo, 21 days) was 2 (8.3) N (%) and the “anemia, treatment-related AE in cycle 1” value ([1]; human, in vivo, 21 days) was 41.7%. The “diarrhea, treatment-related AE in cycle 1” value ([1]; human, in vivo, 21 days) was 50%, the “fatigue, treatment-related AE in cycle 1” value ([1]; human, in vivo, 21 days) was 20.8% and the “hypoalbuminemia, treatment-related AE in cycle 1” value ([1]; human, in vivo, 21 days) was 20.8%. The “lymphopenia, treatment-related AE in cycle 1” value ([1]; human, in vivo, 21 days) was 41.7%, the “dose limiting toxicity (DLT)” value ([1]; human, in vivo, po) was “grade 4 neutropenia” and the cumulative toxicities ([1]; in vivo) was “No cumulative toxicities were observed”. The “maximum tolerated dose (MTD)” value ([1]; oral, twice daily, 21-day cycles, advanced solid tumors) was 3125 mg, the CL_F ([2]; Cycle 1 Day 1, first oral dose 3125 mg, mean, n=10) was 49,020 mL/h and the CL_F [2, 3] was 59,826 mL/h. For the same compound, the “Evening Trough” value [2, 3] was 2883 ng/mL, the “Morning Trough” value [2, 3] was 4597 ng/mL and the “doses above which PK showed potential non-linearity” value ([2]; human, in vivo) was 1875 to 2500 mg. For the same compound, the AUC(0-inf) ([2]; human, in vivo, po, 1250 mg) was 24500 ng·h/mL, the AUC(0-t) ([2]; human, in vivo, po, 1250 mg) was 16600 ng·h/mL and the CL_F ([2]; human, in vivo, po, 1250 mg) was 52,714 mL/h. For the same compound, the Cmax ([2]; human, in vivo, po, 1250 mg) was 2390 ng/mL, the Tmax ([2]; human, in vivo, po, 1250 mg) was 3.7 h and the half-life ([2]; human, in vivo, po, 1250 mg) was 6.6 h. For the same compound, the AUC(0-inf) ([2]; human, in vivo, po, 1875 mg) was 189000 ng·h/mL, the AUC(0-t) ([2]; human, in vivo, po, 1875 mg) was 73900 ng·h/mL and the CL_F ([2]; human, in vivo, po, 1875 mg) was 21,034 mL/h. It also gave a Cmax ([2]; human, in vivo, po, 1875 mg) of 10400 ng/mL, a Tmax ([2]; human, in vivo, po, 1875 mg) of 3.8 h and a half-life ([2]; human, in vivo, po, 1875 mg) of 11.9 h. The AUC(0-inf) ([2]; human, in vivo, po, 2500 mg) was 79400 ng·h/mL, the AUC(0-t) ([2]; human, in vivo, po, 2500 mg) was 61000 ng·h/mL and the CL_F ([2]; human, in vivo, po, 2500 mg) was 55,342 mL/h. It also gave a Tmax ([2]; human, in vivo, po, 2500 mg) of 6 h, a half-life ([2]; human, in vivo, po, 2500 mg) of 4.5 h and an AUC(0-inf) ([2]; human, in vivo, po, 3750 mg) of 131000 ng·h/mL. For the same compound, the AUC(0-t) ([2]; human, in vivo, po, 3750 mg) was 61500 ng·h/mL, the CL_F ([2]; human, in vivo, po, 3750 mg) was 52,114 mL/h and the Cmax ([2]; human, in vivo, po, 3750 mg) was 7920 ng/mL. The Tmax ([2]; human, in vivo, po, 3750 mg) was 2.7 h, the half-life ([2]; human, in vivo, po, 3750 mg) was 9.2 h and the Cmax ([2]; human, in vivo, Cycle 1 Day 1, first oral dose 2500 mg, mean, n=3, read-out: Cmax) was 9740 ng/mL. It also gave an AUC(0-inf) ([2]; human, in vivo, Cycle 1 Day 1, first oral dose 3125 mg, mean, n=10, read-out: AUCinf) of 140000 ng·h/mL, a half-life ([2]; human, in vivo, Cycle 1 Day 1, first oral dose 3125 mg, mean, n=10, read-out: T1/2 (converted)) of 9.2 h and an AUC(0-t) ([2]; human, in vivo, Cycle 1 Day 1, first oral dose 3125 mg, mean, n=13, read-out: AUClast) of 56900 ng·h/mL. For the same compound, the Cmax ([2]; human, in vivo, Cycle 1 Day 1, first oral dose 3125 mg, mean, n=13, read-out: Cmax) was 7640 ng/mL, the Tmax ([2]; human, in vivo, Cycle 1 Day 1, first oral dose 3125 mg, mean, n=13, read-out: Tmax) was 4.8 h and the Cmax ([2]; human, in vivo, Cycle 2 Day 1 steady state, 3125 mg bid, mean, n=7, read-out: Cmax) was 9550 ng/mL. For the same compound, the Tmax ([2]; human, in vivo, Cycle 2 Day 1 steady state, 3125 mg bid, mean, n=7, read-out: Tmax) was 3.3 h, the AUC(0-t) ([2]; human, in vivo, Cycle 2 Day 1 steady state, 3125 mg bid, mean, read-out: AUClast) was 60000 ng·h/mL and the “change of overall exposure or maximal plasma concentration with dose” value ([2]; in vivo) was “No increase”. For the same compound, the “dose linearity of first dose pharmacokinetics” value ([2]; in vivo, po) was “Non-linear pharmacokinetics”, the “subject PBMCs showing an increase in P-EIF2 alpha S51” value (P-EIF2 alpha S51) was 45% and the “subject PBMCs showing a decrease in P-AKT S473” value (P-AKT S473; DL4 (3125 mg bid), after 7 or 42 days) was 45%. For the same compound, the “effect on AKT in peripheral blood mononuclear cells” value (P-AKT S473; in vivo) was “inhibited AKT”.
